Reference: the supplement of paper PMC11061612

Key:
Capivasertib = compound: C1CN(CCC1(C(=O)N[C@@H](CCO)C2=CC=C(C=C2)Cl)N)C3=NC=NC4=C3C=CN4 [Capivasertib]
In short: (§1)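 After 24 hours at 37°C and 5% CO2 in 1536-well plates holding 7.5 μl of DMEM/F12 or RPMI with 10% FBS, cancer cell lines were dosed for 72 hours, with final DMSO typically 0.2%. Viability came from CellTiter-Glo 2.0 luminescence, scaled between the means of blank wells and DMSO wells. A non-linear mixed effects model fitted a two-parameter logistic curve to each dose response to give the single-agent IC50.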

Gefitinib = compound: COc1cc2ncnc(Nc3ccc(F)c(Cl)c3)c2cc1OCCCN1CCOCC1 [Gefitinib]; conditions: max 10 µM
In short: as §1

AZD1775 = compound: C=CCn1c(=O)c2cnc(Nc3ccc(N4CCN(C)CC4)cc3)nc2n1-c1cccc(C(C)(C)O)n1 [AZD1775]; conditions: max 3 µM
In short: as §1

Doxorubicin = compound: COc1cccc2c1C(=O)c1c(O)c3c(c(O)c1C2=O)C[C@@](O)(C(=O)CO)C[C@@H]3O[C@H]1C[C@H](N)[C@H](O)[C@H](C)O1 [Doxorubicin]; conditions: max 1 µM
In short: as §1

SG3199 = compound: CC1=CN2[C@@H](C1)C=NC3=CC(=C(C=C3C2=O)OC)OCCCCCOC4=C(C=C5C(=C4)N=C[C@@H]6CC(=CN6C5=O)C)OC [SG3199]; conditions: max 0.001 µM
In short: as §1

AZD5991 = compound: Cc1c2c(nn1C)CSCc1cc(n(C)n1)CSc1cc(c3ccccc3c1)OCCCc1c(C(=O)O)n(C)c3c-2c(Cl)ccc13 [AZD5991]; conditions: max 1 µM
In short: as §1

Prexasertib = compound: COc1cccc(OCCCN)c1-c1cc(Nc2cnc(C#N)cn2)n[nH]1 [Prexasertib]; conditions: max 1 µM
In short: as §1

AZD2811 = compound: CCN(CCO)CCCOc1ccc2c(Nc3cc(CC(=O)Nc4cccc(F)c4)[nH]n3)ncnc2c1 [AZD2811]; conditions: max 1 µM
In short: as §1

Savolitinib = compound: C[C@@H](c1ccc2nccn2c1)n1nnc2ncc(-c3cnn(C)c3)nc21 [Savolitinib]; conditions: max 1 µM
In short: as §1

AZD4320 = compound: CN(CC[C@H](CSC1=CC=CC=C1)NC2=C(C=C(C=C2)S(=O)(=O)NC(=O)C3=CC=C(C=C3)N4CCC(CC4)[C@H](C5=CC=CC=C5C6=CC=C(C=C6)Cl)O)S(=O)(=O)C(F)(F)F)CCO [AZD4320]; conditions: max 1 µM
In short: as §1

Alisertib = compound: COc1cc(Nc2ncc3c(n2)-c2ccc(Cl)cc2C(c2c(F)cccc2OC)=NC3)ccc1C(=O)O [Alisertib]; conditions: max 10 µM
In short: as §1

AZD5153 = compound: COc1nnc2ccc(N3CCC(c4ccc(OCCN5CCN(C)C(=O)[C@H]5C)cc4)CC3)nn12 [AZD5153]; conditions: max 1 µM
In short: as §1

Trametinib = compound: CC(=O)Nc1cccc(-n2c(=O)n(C3CC3)c(=O)c3c(Nc4ccc(I)cc4F)n(C)c(=O)c(C)c32)c1 [Trametinib]; conditions: max 1 µM
In short: as §1

Olaparib = compound: O=C(c1cc(Cc2n[nH]c(=O)c3ccccc23)ccc1F)N1CCN(C(=O)C2CC2)CC1 [Olaparib]
In short: as §1

AZD6738 = compound: C[C@@H]1COCCN1C2=NC(=NC(=C2)C3(CC3)[S@](=N)(=O)C)C4=C5C=CNC5=NC=C4 [AZD6738]; conditions: max 10 µM
In short: as §1

SN-38 = compound: CCc1c2c(nc3ccc(O)cc13)-c1cc3c(c(=O)n1C2)COC(=O)[C@]3(O)CC [SN-38]; conditions: max 0.3 µM
In short: as §1

AZD8186 = compound: C[C@@H](Nc1cc(F)cc(F)c1)c1cc(C(=O)N(C)C)cc2c(=O)cc(N3CCOCC3)oc12 [AZD8186]; conditions: max 3 µM
In short: as §1

Selumetinib = compound: Cn1cnc2c(F)c(Nc3ccc(Br)cc3Cl)c(C(=O)NOCCO)cc21 [Selumetinib]; conditions: max 10 µM
In short: as §1

AZD0156 = compound: CN(C)CCCOc1ccc(-c2ccc3ncc4c(c3c2)n(C2CCOCC2)c(=O)n4C)cn1 [AZD0156]; conditions: max 3 µM
In short: as §1

AZD1390 = compound: CC(C)n1c(=O)n(C)c2cnc3cc(F)c(-c4ccc(OCCCN5CCCCC5)nc4)cc3c21 [AZD1390]; conditions: max 0.3 µM
In short: as §1

Taselisib = compound: Cc1nc(-c2cn3c(n2)-c2ccc(-c4cnn(C(C)(C)C(N)=O)c4)cc2OCC3)n(C(C)C)n1 [Taselisib]; conditions: max 10 µM
In short: as §1

AZD7648 = compound: Cc1cc2ncnn2cc1Nc1ncc2c(n1)n(C1CCOCC1)c(=O)n2C [AZD7648]; conditions: max 10 µM
In short: as §1

Venetoclax = compound: CC1(C)CCC(CN2CCN(c3ccc(C(=O)NS(=O)(=O)c4ccc(NCC5CCOCC5)c([N+](=O)[O-])c4)c(Oc4cnc5[nH]ccc5c4)c3)CC2)=C(c2ccc(Cl)cc2)C1 [Venetoclax]; conditions: max 1 µM
In short: as §1

Lapatinib = compound: CS(=O)(=O)CCNCc1ccc(-c2ccc3ncnc(Nc4ccc(OCc5cccc(F)c5)c(Cl)c4)c3c2)o1 [Lapatinib]; conditions: max 10 µM
In short: as §1

Palbociclib = compound: CC(=O)c1c(C)c2cnc(Nc3ccc(N4CCNCC4)cn3)nc2n(C2CCCC2)c1=O [Palbociclib]; conditions: max 10 µM
In short: as §1

Dasatinib = compound: CC1=C(C(=CC=C1)Cl)NC(=O)C2=CN=C(S2)NC3=CC(=NC(=N3)C)N4CCN(CC4)CCO [Dasatinib]; conditions: max 2 µM
In short: as §1

Crizotinib = compound: C[C@@H](Oc1cc(-c2cnn(C3CCNCC3)c2)cnc1N)c1c(Cl)ccc(F)c1Cl [Crizotinib]; conditions: max 10 µM
In short: as §1

Cell Line	IC50, cell viability 72 h (Capivasertib; max 3 µM) [µM]	IC50, cell viability 72 h (Gefitinib) [µM]	IC50, cell viability 72 h (AZD1775) [nM]	IC50, cell viability 72 h (Doxorubicin) [nM]	IC50, cell viability 72 h (SG3199) [nM]	IC50, cell viability 72 h (AZD5991) [nM]	IC50, cell viability 72 h (Prexasertib) [nM]	IC50, cell viability 72 h (AZD2811) [nM]	IC50, cell viability 72 h (Savolitinib) [nM]	IC50, cell viability 72 h (AZD4320) [nM]	IC50, cell viability 72 h (Alisertib) [µM]	IC50, cell viability 72 h (AZD5153) [nM]	IC50, cell viability 72 h (Trametinib) [nM]	IC50, cell viability 72 h (Olaparib; max 10 µM) [µM]	IC50, cell viability 72 h (AZD6738) [µM]	IC50, cell viability 72 h (SN-38) [nM]	IC50, cell viability 72 h (AZD8186) [nM]	IC50, cell viability 72 h (Selumetinib) [µM]	IC50, cell viability 72 h (AZD0156) [nM]	IC50, cell viability 72 h (AZD1390) [nM]	IC50, cell viability 72 h (Taselisib) [µM]	IC50, cell viability 72 h (AZD7648) [µM]	IC50, cell viability 72 h (Venetoclax) [nM]	IC50, cell viability 72 h (Capivasertib; max 10 µM) [µM]	IC50, cell viability 72 h (Lapatinib) [µM]	IC50, cell viability 72 h (Palbociclib) [µM]	IC50, cell viability 72 h (Dasatinib) [nM]	IC50, cell viability 72 h (Crizotinib) [µM]	IC50, cell viability 72 h (Olaparib; max 3 µM) [µM]
HCC1419 (Breast Carcinoma)	> 3	> 10	> 3000	> 1000	> 1	> 1000	> 1000	> 1000	> 1000	> 1000	> 10	> 1000	> 1000	> 10	> 10	> 300	> 3000	> 10	> 3000	> 300	7.76	> 10	> 1000	–	–	–	–	–	–
8505C (Thyroid Gland Carcinoma)	–	> 10	1600	565	> 1	> 1000	829	> 1000	> 1000	> 1000	> 10	> 1000	> 1000	> 10	> 10	23.6	> 3000	> 10	> 3000	> 300	> 10	> 10	> 1000	> 10	> 10	> 10	> 2000	> 10	–
KMS-12-BM (Plasma Cell Myeloma)	–	> 10	329	891	> 1	13.9	17	> 1000	> 1000	17.3	3.57	13.4	> 1000	> 10	–	24.8	> 3000	> 10	> 3000	> 300	2.43	> 10	16.4	9.31	7.08	3.66	> 2000	3.54	–
JHH-4 (Hepatocellular Carcinoma)	–	> 10	> 3000	> 1000	> 1	> 1000	912	> 1000	> 1000	> 1000	6.48	> 1000	118	> 10	> 10	31	> 3000	> 10	> 3000	> 300	> 10	> 10	> 1000	> 10	> 10	> 10	173	> 10	–
ESO51 (Esophageal Adenocarcinoma)	–	> 10	298	> 1000	> 1	> 1000	42.4	> 1000	14.2	> 1000	> 10	354	35	> 10	1.79	> 300	> 3000	> 10	> 3000	> 300	> 10	> 10	> 1000	> 10	> 10	> 10	> 2000	0.186	–
G-361 (Melanoma)	–	> 10	1590	816	> 1	306	149	> 1000	> 1000	> 1000	> 10	277	14.6	> 10	> 10	> 300	> 3000	1.54	> 3000	> 300	7.24	> 10	> 1000	> 10	8	> 10	> 2000	8.66	–
HCC1187 (Breast Carcinoma)	–	> 10	1060	> 1000	> 1	87.7	362	29.4	> 1000	> 1000	0.114	> 1000	> 1000	> 10	> 10	> 300	> 3000	> 10	> 3000	> 300	> 10	> 10	> 1000	> 10	> 10	> 10	> 2000	4.57	–
BICR10 (Oral Cavity Carcinoma)	2.52	–	413	–	–	–	–	–	–	–	–	–	–	–	–	–	–	–	> 3000	–	–	–	–	–	–	–	–	–	> 3
CHSA8926 (Chondrosarcoma)	–	> 10	1270	703	> 1	> 1000	> 1000	> 1000	> 1000	> 1000	> 10	> 1000	–	> 10	> 10	> 300	2240	> 10	> 3000	> 300	1.52	> 10	> 1000	> 10	> 10	> 10	60.8	9.16	–
NCI-H661 (Non-Small Cell Lung Carcinoma)	–	> 10	765	> 1000	> 1	> 1000	46.8	> 1000	> 1000	> 1000	> 10	> 1000	> 1000	> 10	> 10	> 300	> 3000	> 10	> 3000	> 300	> 10	> 10	> 1000	> 10	> 10	> 10	> 2000	> 10	–
SK-GT-2 (Gastric Carcinoma)	–	4.89	848	> 1000	> 1	> 1000	76.7	> 1000	> 1000	> 1000	> 10	> 1000	> 1000	> 10	> 10	> 300	> 3000	> 10	> 3000	> 300	6.64	> 10	> 1000	> 10	1.13	> 10	> 2000	> 10	–
RD (Rhabdomyosarcoma)	–	> 10	1030	> 1000	> 1	> 1000	465	> 1000	> 1000	706	> 10	951	> 1000	> 10	> 10	> 300	> 3000	> 10	> 3000	> 300	2.27	> 10	> 1000	> 10	> 10	> 10	> 2000	> 10	–
SU-DHL-5 (B-Cell Non-Hodgkin's Lymphoma)	–	> 10	363	13	> 1	8.62	4.89	9.84	> 1000	> 1000	0.359	42.3	1000	3.38	0.457	1.38	160	> 10	> 3000	> 300	0.0486	6.58	> 1000	0.305	6.61	0.559	10.8	1.65	–
MOLM-13 (Acute Myeloid Leukemia)	–	4.32	160	40	> 1	46.5	5.31	18.9	> 1000	6.77	0.0527	28.9	24.2	6.77	0.584	3.55	> 3000	4.04	> 3000	> 300	6.31	> 10	23.5	1.87	> 10	0.605	932	1.23	–
PC-3 (Prostate Carcinoma)	–	> 10	> 3000	> 1000	> 1	> 1000	> 1000	> 1000	> 1000	> 1000	> 10	> 1000	> 1000	> 10	> 10	82.7	> 3000	> 10	> 3000	> 300	> 10	> 10	> 1000	> 10	> 10	> 10	> 2000	> 10	–
SNU-398 (Hepatocellular Carcinoma)	–	> 10	701	> 1000	> 1	150	777	801	> 1000	> 1000	4.32	941	849	> 10	> 10	> 300	> 3000	> 10	> 3000	> 300	> 10	> 10	> 1000	> 10	> 10	> 10	> 2000	> 10	–
RPMI-8226 (Plasma Cell Myeloma)	–	> 10	1600	599	> 1	88.2	30.5	> 1000	> 1000	150	1.41	114	> 1000	> 10	2.02	59.6	> 3000	> 10	> 3000	> 300	> 10	> 10	> 1000	> 10	> 10	5.79	> 2000	> 10	–
